According to patent publication US4978751A, “Low-calorie sweeteners of fructosyl oligosaccharides and the food or dietetic products or drinks containing them” (Roussel-Ulcaf, priority 1988, dated 1990):

What was measured:
[1] = test system: homogenate of human jejunal mucous; assay: in vitro; format: in vitro ADME; settings: 0 min
Protocol: (§1) The preparation is identical to that given in Example 2, paragraph 2.1. The jejunal mucous (about 40 mg) is homogenized in the presence of a 0.9% aqueous solution of NaCl (weight/volume) using a "Polytron" type homogenizer. The homogenate is then brought to 12 ml (with the 0.9% solution of NaCl). The reaction mixture containing 2 ml of fructosyl oligosaccharide solution and 2 ml of homogenate is incubated for 24 hours at 37° C. under magnetic agitation. Samples are taken at regular intervals and the intestinal enzymes are thermally inactivated. A parallel test is carried out on a control solution containing saccharose. […] [formula]

in vitro [2] = format: in vitro ADME; settings: human, jejunal mucous homogenate
Protocol: as §1

[3] = test system: alpha amylase from the pancreas of a pig; assay: Hydrolysis test with alpha amylase of the pancreas of a pig; settings: substrate 3 g/liter, pH 7.0, 19 units enzyme, 2 hours at 37° C.
Protocol: The product is then dissolved is a 0.1M sodium phosphate buffer, (pH 7.0), so as to obtain a final concentration of 3 g/liter of fructosyl oligosaccharide. A mixture containing 2 ml of fructosyl oligosaccharide solution (prepared as above in 1.1) and 19 units of alpha amylase from the pancreas of a pig (SIGMA Ref […]) is incubated for 2 hours at 37° C. The reaction is stopped by heating. The glucose which has appeared is measured by the enzymatic method with glucose oxidase/peroxidase (Boehringer test Ref. 124036). A control test is carried out with maltodextrins, type glucidex 21 (Societe Roquette, France). The results are given in micromoles of glucose formed per enzyme unit and per hour.

[4] = test system: alpha amylase of human saliva; assay: Hydrolysis test with alpha amylase of human saliva; format: in vitro ADME; settings: substrate 3 g/liter, pH 7.0, 17.8 units enzyme, 2 hours at 37° C.
Protocol: After 2 hours, the reaction is stopped by heating.

in vitro [5] = format: in vitro ADME; settings: rat, jejunum homogenate, pH 6
Protocol: (§2) Then the products are dissolved in a 0.05M sodium phosphate (buffer pH 6.0), so as to have a molar concentration of […]. […] The reaction mixture containing 2 ml of fructosyl oligosaccharide solution and 2 ml of homogenate is incubated for 24 hours at 37° C., under magnetic agitation. Samples are taken at regular intervals, and the intestinal enzymes are thermally inactivated. A parallel test is carried out on a control solution containing saccharose.

[6] = test system: homogenate of the jejunum of a rat; assay: in vitro; format: in vitro ADME; settings: 0 min, pH 6
Protocol: as §2

in vitro [7] = settings: rat, jejunum homogenate, pH 6
Protocol: (§3) 5 cm of jejunum is removed from a male Sprague Dawley rat (previously put on a diet for 25 hours) and rinsed with a solution of physiological serum.
(§4) The jejunum (weighing about 150 mg) is pulverized in the presence of 0.9% NaCl (w/v) using a "Polytron" type homogenizer then the pulverized product is brought to 10 ml (with 0.9% NaCl solution).
(§5) The reaction mixture containing 2 ml of fructosyl oligosaccharide solution and 2 ml of homogenate is incubated for 24 hours at 37° C., under magnetic agitation.
(§6) In a second series of tests, the evolution of the composition of the fructosyl oligosaccharide is followed over a period of time by inverse plane HPLC (Nucleosil C18 column--eluent: water), the control sugar still being saccharose.

[8] = test system: homogenate of the jejunum of a rat; assay: in vitro; settings: 0 min, pH 6
Protocol: as §3, §4, §5, §6

Compound	DH % (degree of hydrolysis) [1] [%]	metabolised at 10 h (in vitro [2]) [%]	metabolised at 24 h (in vitro [2]) [%]	Activity of the alpha amylase from the pancreas of a pig [3]	Activity of the alpha amylase of human saliva [4]	metabolised at 8.5 h (in vitro [5]) [%]	metabolised at 17.5 h (in vitro [5]) [%]	metabolised at 24 h (in vitro [5]) [%]	DH % (degree of hydrolysis) [6] [%]	remaining at 8.5 h (in vitro [7]) [%]	remaining at 24 h (in vitro [7]) [%]	Composition in carbohydrate %: Gentiobiofructose [8] [%]	Composition in carbohydrate %: Cellobiofructose [8] [%]	Composition in carbohydrate %: Saccharose [8] [%]
OC[C@H]1O[C@@](CO)(O[C@H]2O[C@H](CO[C@@H]3O[C@H](CO)[C@@H](O)[C@H](O)[C@H]3O)[C@@H](O)[C@H](O)[C@H]2O)[C@@H](O)[C@@H]1O [Gentiobiofructose, gentiobiofructose]	0	0	0	0 micromoles of glucose formed p	0 micromoles of glucose formed p	0	0.4	0.4	0	100	99.6	100		
OC[C@H]1O[C@@](CO)(O[C@H]2O[C@H](CO)[C@@H](O[C@@H]3O[C@H](CO)[C@@H](O)[C@H](O)[C@H]3O)[C@H](O)[C@H]2O)[C@@H](O)[C@@H]1O [Cellobiofructose, cellobiofructose]	0	0	0	0 micromoles of glucose formed p	0 micromoles of glucose formed p	0	3.7	5.4	0	97	93.6		100	
OC[C@H]1O[C@@](CO)(O[C@H]2O[C@H](CO)[C@@H](O)[C@H](O)[C@H]2O)[C@@H](O)[C@@H]1O [Saccharose, saccharose, reference compound]	0	57.1	88			57.6	66.7	92.7	0		4			100
